The values below come from patent publication US10722501B2 (BAYER AKTIENGESELLSCHAFT, priority 2016, dated 2020).

SMILES strings stand for the structures.

The target of the experiment is T1, recombinant full-length human prolyl endopeptidase (PREP) (Homo sapiens, UniProt P48147).
T1 construct: To recombinant full-length human prolyl endopeptidase (PREP, R&D-Systems, 4308-SE); purchased R&D-Systems 4308-SE
T1 sequence (P48147 1-710): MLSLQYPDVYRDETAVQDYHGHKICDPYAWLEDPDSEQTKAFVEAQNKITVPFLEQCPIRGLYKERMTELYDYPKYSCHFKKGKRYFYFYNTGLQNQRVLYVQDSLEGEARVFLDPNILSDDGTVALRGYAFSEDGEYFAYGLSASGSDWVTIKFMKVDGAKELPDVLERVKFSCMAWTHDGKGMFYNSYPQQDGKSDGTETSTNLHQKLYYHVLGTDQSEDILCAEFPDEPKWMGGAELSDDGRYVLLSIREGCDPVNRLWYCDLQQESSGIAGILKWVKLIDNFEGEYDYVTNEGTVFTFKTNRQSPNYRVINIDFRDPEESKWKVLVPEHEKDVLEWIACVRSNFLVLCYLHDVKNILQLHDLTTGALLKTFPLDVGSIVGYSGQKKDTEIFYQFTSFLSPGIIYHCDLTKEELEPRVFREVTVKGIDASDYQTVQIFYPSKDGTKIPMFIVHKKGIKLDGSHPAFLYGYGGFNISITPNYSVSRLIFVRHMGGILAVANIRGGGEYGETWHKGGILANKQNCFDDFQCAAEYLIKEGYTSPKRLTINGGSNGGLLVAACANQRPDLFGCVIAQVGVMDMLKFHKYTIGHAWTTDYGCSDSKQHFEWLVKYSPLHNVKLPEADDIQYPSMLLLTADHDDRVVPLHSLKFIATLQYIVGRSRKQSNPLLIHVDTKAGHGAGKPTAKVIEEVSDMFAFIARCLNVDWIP
The experiment is described as follows: Biochemical human prolyl endopeptidase (PREP) assay with fluorescently labelled substrate. The following applies: substrate Z-Gly-Pro-AMC 50 μM, 32° C., 60 min; some as mean values from multiple independent determinations. Put shortly: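 Initial rates of fluorescence increase from 50 μM Z-Gly-Pro-AMC cleavage (ex 360/em 465 nm, 60 min, 32° C) give percent PREP activity versus no-compound control, and IC50 is interpolated. Enzyme used at 0.4 nM (final, example) in Tris pH 7.5 with EDTA, GSH, BSA and Brij-35; compounds span 1 nM to 30 μM.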
By IC50 is commonly meant the concentration that inhibits the measured activity by half. As for `O=C(C1C(C(F)(F)F)CCc2nn(Cc3ccc(Cl)cn3)c(=O)n21)N1CC[C@H](F)C1` (mixture of isomers) [Example 298, (5RS,6RS)-2-[(5-Chloropyridin-2-yl)methyl]-5-{[(3S)-3-fluoropyrrolidin-1-yl]carbonyl}-6-(trifluoromethyl)-5,6,7,8-tetrahydro[1,2,4]triazolo[4,3-a]pyridin-3(2H)-one], the IC50 was determined as 24 nM.
For the compound `O=C(C1C(C(F)(F)F)CCc2nn(Cc3ccc(Cl)cn3)c(=O)n21)N1C[C@@H](F)[C@@H](F)C1` (mixture of isomers) [Example 300, (5RS,6RS)-2-[(5-Chloropyridin-2-yl)methyl]-5-{[(3R,4S)-3,4-difluoropyrrolidin-1-yl]carbonyl}-6-(trifluoromethyl)-5,6,7,8-tetrahydro[1,2,4]triazolo[4,3-a]pyridin-3(2H)-one], the IC50 is 19 nM.
For the compound `O=C(C1C(C(F)(F)F)CCc2nn(Cc3ccnc(C(F)(F)F)c3F)c(=O)n21)N1CC(F)C1` (racemic) [Example 302, (5RS,6RS)-5-[(3-Fluoroazetidin-1-yl)carbonyl]-2-{[3-fluoro-2-(trifluoromethyl)pyridin-4-yl]methyl}-6-(trifluoromethyl)-5,6,7,8-tetrahydro[1,2,4]triazolo[4,3-a]pyridin-3(2H)-one], the IC50 is 49.5 nM.
As for `O=C(C1C(C(F)(F)F)CCc2nn(Cc3ccc(C(F)(F)F)nc3)c(=O)n21)N1CC(F)C1` (racemic) [Example 304, (5RS,6RS)-5-[(3-Fluoroazetidin-1-yl)carbonyl]-6-(trifluoromethyl)-2-{[6-(trifluoromethyl)pyridin-3-yl]methyl}-5,6,7,8-tetrahydro[1,2,4]triazolo[4,3-a]pyridin-3(2H)-one], the IC50 stood at 35 nM.
For `O=C(C1C(C(F)(F)F)CCc2nn(Cc3ncc(Cl)cc3Cl)c(=O)n21)N1CC(F)C1` (racemic) [Example 306, (5RS,6RS)-2-[(3,5-Dichloropyridin-2-yl)methyl]-5-[(3-fluoroazetidin-1-yl)carbonyl]-6-(trifluoromethyl)-5,6,7,8-tetrahydro[1,2,4]triazolo[4,3-a]pyridin-3(2H)-one], the IC50 was found to be 215 nM.
On to `O=C(C1C(C(F)(F)F)CCc2nn(Cc3ncc(Cl)cc3F)c(=O)n21)N1CC(F)C1` (racemic) [Example 308, (5RS,6RS)-2-[(5-Chloro-3-fluoropyridin-2-yl)methyl]-5-[(3-fluoroazetidin-1-yl)carbonyl]-6-(trifluoromethyl)-5,6,7,8-tetrahydro[1,2,4]triazolo[4,3-a]pyridin-3(2H)-one], for which the IC50 was 125 nM.
With `O=C(C1C(C(F)(F)F)CCc2nn(Cc3ccc(Cl)cn3)c(=O)n21)N1CC(F)C1` (racemic) [Example 310, (5RS,6RS)-2-[(5-Chloropyridin-2-yl)methyl]-5-[(3-fluoroazetidin-1-yl)carbonyl]-6-(trifluoromethyl)-5,6,7,8-tetrahydro[1,2,4]triazolo[4,3-a]pyridin-3(2H)-one] the figure was 15 nM.
Turning to `O=C(C1CC(C(F)(F)F)Cc2nn(Cc3ccc(C(F)(F)F)nc3)c(=O)n21)N1CCC(F)(F)C1` (racemic) [Example 312, (5RS,7RS)-5-[(3,3-Difluoropyrrolidin-1-yl)carbonyl]-7-(trifluoromethyl)-2-{[6-(trifluoromethyl)pyridin-3-yl]methyl}-5,6,7,8-tetrahydro[1,2,4]triazolo[4,3-a]pyridin-3(2H)-one], the concentration for half-maximal inhibition (IC50) is 8.9 nM.
As to `O=C(C1CC(C(F)(F)F)Cc2nn(Cc3ccc(Cl)cn3)c(=O)n21)N1CC[C@H](F)C1` (mixture of isomers) [Example 314, (5RS,7RS)-2-[(5-Chloropyridin-2-yl)methyl]-5-{[(3S)-3-fluoropyrrolidin-1-yl]carbonyl}-7-(trifluoromethyl)-5,6,7,8-tetrahydro[1,2,4]triazolo[4,3-a]pyridin-3(2H)-one], the IC50 was determined as 1.4 nM.
For the compound `O=C(C1CC(C(F)(F)F)Cc2nn(Cc3cncc(Cl)c3)c(=O)n21)N1CC[C@H](F)C1` (mixture of isomers) [Example 316, (5RS,7RS)-2-[(5-Chloropyridin-3-yl)methyl]-5-{[(3S)-3-fluoropyrrolidin-1-yl]carbonyl}-7-(trifluoromethyl)-5,6,7,8-tetrahydro[1,2,4]triazolo[4,3-a]pyridin-3(2H)-one], the IC50 turned out to be 2.6 nM.
As for `CC1CCC(C(=O)N2C[C@@H](F)[C@@H](F)C2)n2c1nn(Cc1ccc(F)c(Cl)c1)c2=O` (mixture of isomers) [Example 319, (5RS,8RS)-2-(3-Chloro-4-fluorobenzyl)-5-{[(3R,4S)-3,4-difluoropyrrolidin-1-yl]carbonyl}-8-methyl-5,6,7,8-tetrahydro[1,2,4]triazolo[4,3-a]pyridin-3(2H)-one], the IC50 came to 0.63 nM.
On to `CC1CCC(C(=O)N2CC[C@H](F)C2)n2c1nn(Cc1ccc(F)c(Cl)c1)c2=O` (mixture of isomers) [Example 320, (5RS,8RS)-2-(3-Chloro-4-fluorobenzyl)-5-{[(3S)-3-fluoropyrrolidin-1-yl]carbonyl}-8-methyl-5,6,7,8-tetrahydro[1,2,4]triazolo[4,3-a]pyridin-3(2H)-one], for which the IC50 was determined as 0.69 nM.
As for `CC1CCC(C(=O)N2CC(F)C2)n2c1nn(Cc1ccc(F)c(Cl)c1)c2=O` (racemic) [Example 321, (5RS,8RS)-2-(3-Chloro-4-fluorobenzyl)-5-[(3-fluoroazetidin-1-yl)carbonyl]-8-methyl-5,6,7,8-tetrahydro[1,2,4]triazolo[4,3-a]pyridin-3(2H)-one], the IC50 stood at 0.93 nM.
In the case of `CC1CCC(C(=O)N2C[C@@H](F)[C@@H](F)C2)n2c1nn(Cc1ccnc(C(F)(F)F)c1F)c2=O` (mixture of isomers) [Example 322, (5RS,8RS)-5-{[(3R,4S)-3,4-Difluoropyrrolidin-1-yl]carbonyl}-2-{[3-fluoro-2-(trifluoromethyl)pyridin-4-yl]methyl}-8-methyl-5,6,7,8-tetrahydro[1,2,4]triazolo[4,3-a]pyridin-3(2H)-one], the IC50 is 0.94 nM.
On to `CC1CCC(C(=O)N2CCC(F)(F)C2)n2c1nn(Cc1ccc(F)c(Cl)c1)c2=O` (racemic) [Example 323, (5RS,8RS)-2-(3-Chloro-4-fluorobenzyl)-5-[(3,3-difluoropyrrolidin-1-yl)carbonyl]-8-methyl-5,6,7,8-tetrahydro[1,2,4]triazolo[4,3-a]pyridin-3(2H)-one], for which the IC50 was 0.96 nM.
With `CC1CCC(C(=O)N2C[C@@H](F)[C@@H](F)C2)n2c1nn(Cc1ccc(F)cc1F)c2=O` (mixture of isomers) [Example 324, (5RS,8RS)-2-(2,4-Difluorobenzyl)-5-{[(3R,4S)-3,4-difluoropyrrolidin-1-yl]carbonyl}-8-methyl-5,6,7,8-tetrahydro[1,2,4]triazolo[4,3-a]pyridin-3(2H)-one], the IC50 was determined as 1.2 nM.
With `CC1CCC(C(=O)N2C[C@@H](F)[C@@H](F)C2)n2c1nn(Cc1ccc(C(F)(F)F)nc1)c2=O` (mixture of isomers) [Example 325, (5RS,8RS)-5-{[(3R,4S)-3,4-Difluoropyrrolidin-1-yl]carbonyl}-8-methyl-2-{[6-(trifluoromethyl)pyridin-3-yl]methyl}-5,6,7,8-tetrahydro[1,2,4]triazolo[4,3-a]pyridin-3(2H)-one], the IC50 came to 1.5 nM.
As for `CC1CCC(C(=O)N2CC[C@H](F)C2)n2c1nn(Cc1ccc(F)cc1F)c2=O` (mixture of isomers) [Example 326, (5RS,8RS)-2-(2,4-Difluorobenzyl)-5-{[(3S)-3-fluoropyrrolidin-1-yl]carbonyl}-8-methyl-5,6,7,8-tetrahydro[1,2,4]triazolo[4,3-a]pyridin-3(2H)-one], the IC50 was 1.5 nM.
Take `CC1CCC(C(=O)N2CCC(F)(F)C2)n2c1nn(Cc1ccc(F)cc1F)c2=O` (racemic) [Example 327, (5RS,8RS)-2-(2,4-Difluorobenzyl)-5-[(3,3-difluoropyrrolidin-1-yl)carbonyl]-8-methyl-5,6,7,8-tetrahydro[1,2,4]triazolo[4,3-a]pyridin-3(2H)-one]: the IC50 worked out at 1.9 nM.
For the compound `CC1CCC(C(=O)N2CC(F)C2)n2c1nn(Cc1ccc(C(F)(F)F)nc1)c2=O` (racemic) [Example 328, (5RS,8RS)-5-[(3-Fluoroazetidin-1-yl)carbonyl]-8-methyl-2-{[6-(trifluoromethyl)pyridin-3-yl]methyl}-5,6,7,8-tetrahydro[1,2,4]triazolo[4,3-a]pyridin-3(2H)-one], the IC50 is 4.1 nM.
As for `CC1CCC(C(=O)N2CC(F)C2)n2c1nn(Cc1ccc(F)cc1F)c2=O` (racemic) [Example 329, (5RS,8RS)-2-(2,4-Difluorobenzyl)-5-[(3-fluoroazetidin-1-yl)carbonyl]-8-methyl-5,6,7,8-tetrahydro[1,2,4]triazolo[4,3-a]pyridin-3(2H)-one], the IC50 is 4.3 nM.
